Data reported in ChEMBL document CHEMBL1629472, “2-Acetylpyridine thiosemicarbazones: cytotoxic activity in nanomolar doses against malignant gliomas” (Eur J Med Chem, 2010).

Columns and labels:
[1] = Cytotoxicity against human T98 cells expressing p53 mutant after 48 hrs by MTT assay; assay type: functional, cell-based; conditions: T98, 48 h
[2] = Cytotoxicity against erythrocytes assessed as hemolysis; assay type: cell-based; conditions: erythrocyte
[3] = Cytotoxicity against rat RT2 cells expressing wild type p53 after 48 hrs by MTT assay; assay type: functional, cell-based; conditions: RT2, 48 h

| Structure (SMILES) | IC50 [1] [nM] | Hemolytic concentration [2] [mM] | IC50 [3] [nM] |
| --- | --- | --- | --- |
| C/C(=N\NC(=S)Nc1ccccc1Cl)c1ccccn1 | 1.1 | > 1 | 1.4 |
| C/C(=N\NC(=S)Nc1ccccc1C)c1ccccn1 | 34 | > 1 | 14 |
| C/C(=N\NC(=S)Nc1cccc(C)c1)c1ccccn1 | 50 | > 1 | 24 |
| C/C(=N\NC(=S)Nc1cccc(Cl)c1)c1ccccn1 | 1 | > 1 | 9 |
| C/C(=N\NC(=S)Nc1ccc(Cl)cc1)c1ccccn1 | 5.9 | > 1 | 3.7 |
| C/C(=N\NC(=S)Nc1ccccc1)c1ccccn1 | 6.8 | > 1 | 1.4 |
| C/C(=N\NC(=S)Nc1ccc(C)cc1)c1ccccn1 | 37 | > 1 | 17 |
